According to US6780414B2 (priority 1998, dated 2004):
Where two headings read alike, the source gives them in different places.

Tests used:
ShET-1 and ShET-2 [1] = type: cell-based, Shigella flexneri 2a
Shiga toxin [2] = target: T1, Shiga toxin (Shigella dysenteriae, UniProt Q7BQ98+Q9FBI2); type: cell-based, Shigella dysenteriae 1
stable toxin (YST-I) = stable toxin (YST-I) (Yersinia enterocolitica, UniProt P07593); assay: Ussing chamber assay, effect of cadaverine on YST-I; type: cell-based
stable toxin (YST-11) = assay: Ussing chamber assay, effect of cadaverine on YST-11; type: cell-based, Yersinia enterocolitica; details: toxin mucosal side; cadaverine (400 μM) both sides
[3] = system: cytolethal distending toxin; assay: Ussing chamber assay, effect of cadaverine on cytolethal distending toxin; type: cell-based, Campylobacter jejuni
cholera toxin = cholera toxin (Vibrio cholerae serotype O1, UniProt P01555+P01556); type: cell-based
heat stable toxin (STa) = assay: Ussing chamber assay, effect of cadaverine on heat stable toxin (STa); type: cell-based, enterotoxigenic Escherichia coli
Tsh-associated toxin = assay: Ussing chamber assay, effect of cadaverine on Tsh-associated toxin; type: cell-based, avian pathogenic Escherichia coli; details: toxin mucosal side; cadaverine (400 μM) both sides
ShET-1 and ShET-2 [4] = assay: Fluid accumulation in ileal loops, effect of cadaverine; type: in vivo, Shigella flexneri 2a; details: cadaverine 400 μM unless otherwise indicated
Shiga toxin [5] = target: T1, Shiga toxin; details: cadaverine 400 μM unless otherwise indicated
BS103 = details: T84 monolayers, mean ± SEM
[6] = system: S. flexneri-induced PMN transepithelial migration; assay: PMN transepithelial migration assay across T84 cell monolayers
[7] = system: S. flexneri 2a strain 2457T; type: cell-based, Shigella flexneri 2a; details: 2457T + 1 mM supplement present only during the two hour invasion period
mxiA::lacZ = type: cell-based, S. flexneri 2a
spa47::lacZ = type: cell-based, S. flexneri 2a
ipaB::lacZ = type: cell-based, S. flexneri 2a
[8] = system: representative virulence genes; type: cell-based, S. flexneri 2a
[9] = cadaverine 400 μM unless otherwise indicated
[10] = toxin mucosal side, cadaverine (400 μM) both sides

T1 sequence (Q9FBI2 23-315 limits assumed): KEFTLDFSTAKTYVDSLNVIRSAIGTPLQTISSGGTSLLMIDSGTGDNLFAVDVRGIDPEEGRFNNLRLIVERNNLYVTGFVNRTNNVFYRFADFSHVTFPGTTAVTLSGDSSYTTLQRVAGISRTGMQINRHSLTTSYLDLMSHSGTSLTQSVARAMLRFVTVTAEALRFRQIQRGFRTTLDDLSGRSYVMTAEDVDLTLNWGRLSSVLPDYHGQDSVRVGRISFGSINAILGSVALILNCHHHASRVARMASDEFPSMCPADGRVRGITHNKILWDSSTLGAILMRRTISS
T1 sequence (Q7BQ98 21-89 limits assumed): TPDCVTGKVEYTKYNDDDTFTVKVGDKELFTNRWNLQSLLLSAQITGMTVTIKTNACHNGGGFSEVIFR
Chain of cholera toxin (P01555 19-258 limits assumed): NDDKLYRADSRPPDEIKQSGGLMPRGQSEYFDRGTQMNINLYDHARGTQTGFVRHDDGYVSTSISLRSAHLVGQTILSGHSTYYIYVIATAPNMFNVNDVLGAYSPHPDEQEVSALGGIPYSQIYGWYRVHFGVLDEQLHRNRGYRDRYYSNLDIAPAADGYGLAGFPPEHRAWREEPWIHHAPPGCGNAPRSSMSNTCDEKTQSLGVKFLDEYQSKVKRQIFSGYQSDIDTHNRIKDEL
Chain of cholera toxin (P01556 22-124 limits assumed): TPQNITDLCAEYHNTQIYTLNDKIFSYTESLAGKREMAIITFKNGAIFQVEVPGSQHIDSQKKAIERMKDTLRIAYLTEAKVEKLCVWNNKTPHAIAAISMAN

NCCCCCN [cadaverine, 1,5-diaminopentane]
Effect of Cadaverine, enterotoxicity in Ussing chambers (ShET-1 and ShET-2 [1]): blocked | ΔIsc + cadaverine (ShET-1 and ShET-2 [1]): 2.7 | ΔIsc as % of the value in tissues not pretreated (ShET-1 and ShET-2 [1]): 40% | Effect of Cadaverine, enterotoxicity in Ussing chambers (Shiga toxin [2]; [9]): blocked; | ΔIsc + cadaverine (Shiga toxin [2]; [10]): −13.6 | Effect of Cadaverine, enterotoxicity in Ussing chambers (stable toxin (YST-I); [9]): completely | ΔIsc + cadaverine (stable toxin (YST-I); [10]): −11.0 | ΔIsc + cadaverine (stable toxin (YST-11)): 32.4 | Effect of Cadaverine, enterotoxicity in Ussing chambers [3, 9]: completely | ΔIsc + cadaverine [3, 10]: −18.7 | Effect of Cadaverine, enterotoxicity in Ussing chambers (cholera toxin; [9]): none | ΔIsc + cadaverine (cholera toxin; [10]): 70.9 | Effect of Cadaverine, enterotoxicity in Ussing chambers (heat stable toxin (STa); [9]): none | ΔIsc + cadaverine (heat stable toxin (STa); [10]): 75.9 | ΔIsc + cadaverine (Tsh-associated toxin): 23.3 | Effect of Cadaverine, fluid accumulation in ileal loops (ShET-1 and ShET-2 [4]): both completely | Effect of Cadaverine, cytotoxicity in Vero cells (Shiga toxin [5]): none | % Association BS103 (BS103; 100 μM cadaverine): 4.37 ± 1.64% | % Internalization BS103 (BS103; 100 μM cadaverine): 0.08 ± 0.02% | % Association BS103 (BS103; 300 μM cadaverine): 3.14 ± 0.75% | % Internalization BS103 (BS103; 300 μM cadaverine): 0.03 ± 0.01% | % Association BS103 (BS103; 500 μM cadaverine): 2.11 ± 0.90% | % Internalization BS103 (BS103; 500 μM cadaverine): 0.01 ± 0.01% | ability of S. flexneri to promote PMN transepithelial migration ([6]; 2457T added basolaterally together with cadaverine 100, 300 and 500 μM (FIG. 3)): dose dependent decrease | down regulation of S. flexneri-induced PMN transepithelial migration ([6]; T84 infected with 2457T 1 hr, then apical cadaverine 300 μM 30 min (FIG. 5)): 60%

O=C(O)c1ccc[n+]([C@@H]2O[C@H](COP(=O)(O)O)[C@@H](O)[C@H]2O)c1 [nicotinic acid mononucleotide]
% FIREWORKS [7]: 17% | % INVASION [7]: 82%

O=C(O)c1cccnc1 [nicotinic acid]
% FIREWORKS [7]: 17% | % INVASION [7]: 85%

O=C(O)c1cccnc1C(=O)O [quinolinate]
% FIREWORKS [7]: 0% | % INVASION [7]: 0.5% | Miller Units of activity (mxiA::lacZ): 196.5 ± 2.0 Miller Units | Miller Units of activity (spa47::lacZ): 312.3 ± 6.5 Miller Units | Miller Units of activity (ipaB::lacZ): 140.5 ± 2.9 Miller Units | reduction of virulence gene expression [8]: about 50%
